From the Deep4Chem optical property database
Values belong to the compound of their own block, whether it stands above or below them.

Assay: photoluminescence quantum yield (fraction); solvent given as SMILES

Compound: C=Cc1cc2cc3c(cc2oc1=O)OCO3
- photoluminescence quantum yield (in CC#N): 0.65

Compound: CCN(CC)c1ccc2cc(C#N)c(=N)oc2c1
- photoluminescence quantum yield (in ClCCl): 0.84

Compound: CC(C)(C)c1ccc(N2c3ccc(C(C)(C)C)cc3B3c4cc(C(C)(C)C)ccc4N(c4ccc(C(C)(C)C)cc4)c4cc(-n5c6ccc(C(C)(C)C)cc6c6cc(C(C)(C)C)ccc65)cc2c43)cc1
- photoluminescence quantum yield (in Cc1ccccc1): 0.975

Compound: CC(C)[Si](C#Cc1c2cc3ccccc3cc2c(C#Cc2ccccc2)c2cc3ccccc3cc12)(C(C)C)C(C)C
- photoluminescence quantum yield (in ClCCl): 0.12

Compound: CC(C)(C)c1ccc(C2=C(c3ccc(-n4c5ccc(C(C)(C)C)cc5c5cc(C(C)(C)C)ccc54)cc3)S(=O)(=O)c3c2sc(-c2ccc(-n4c5ccc(C(C)(C)C)cc5c5cc(C(C)(C)C)ccc54)cc2)c3-c2ccc(C(C)(C)C)cc2)cc1
- photoluminescence quantum yield (in C1CCOC1): 0.164

Compound: CCCCN1C(=O)c2cc(Oc3ccc(C(C)(C)C)cc3)c3c4c(Oc5ccc(C(C)(C)C)cc5)cc5c6c(cc(Oc7ccc(C(C)(C)C)cc7)c(c7c(Oc8ccc(C(C)(C)C)cc8)cc(c2c37)C1=O)c64)C(=O)N(CCCC)C5=O
- photoluminescence quantum yield (in C1CCOC1): 0.82
- photoluminescence quantum yield (in Cc1ccccc1): 0.811
- photoluminescence quantum yield (in ClC(Cl)Cl): 0.83
- photoluminescence quantum yield (in ClCCl): 0.802

Compound: CCN(CC)c1ccc2cc(-c3nc4cc(C(=O)Nc5cccc(OC)c5)ccc4o3)c(=O)oc2c1
- photoluminescence quantum yield (in ClCCl): 0.21

Compound: COC(=O)C(NC(=O)OC(C)(C)C)c1ccc2oc(-c3cc(OC)c(OC)cc3OC)nc2c1 (stereo not given)
- photoluminescence quantum yield (in CC1CCCCC1): 0.58
- photoluminescence quantum yield (in CC#N): 0.79
- photoluminescence quantum yield (in CO): 0.81

Compound: COc1ccc2c3c(c4ccc(OC)cc4c2c1)C(C)(C)c1ccccc1-3
- photoluminescence quantum yield (in C1CCCCC1): 0.19

Compound: CN(C)c1ccc(C(=O)Nc2ccccc2)cc1
- photoluminescence quantum yield (in C1CCCCC1): 0.0011
- photoluminescence quantum yield (in C1CCOC1): 0.0061
- photoluminescence quantum yield (in CC#N): 0.0107
- photoluminescence quantum yield (in CCOCC): 0.0036

Compound: CCCCCCOc1cc(C=O)c(OCCCCCC)cc1C=O
- photoluminescence quantum yield (in ClCCl): 0.208

Compound: COc1ccc(-c2n[n+]3c(s2)N=C(c2ccccc2)O[B-]3(F)F)cc1
- photoluminescence quantum yield (in Cc1ccccc1): 0.16

Compound: CCC(CC)COC1=CC2=C3c4cc(OCC(CC)CC)c(-c5cccs5)n4[B-](F)(F)[n+]4nnn(c43)[B-](F)(F)[N+]2=C1c1cccs1
- photoluminescence quantum yield (in C1CCOC1): 0.06
- photoluminescence quantum yield (in ClCCl): 0.06

Compound: CCCCCOc1cc2oc(=O)c3c4occc4c4ccc5cccc6c(c1)c2c3c4c56
- photoluminescence quantum yield (in C1CCOC1): 0.45

Compound: CC1(C)c2ccccc2N(c2ccc3c(c2)C2(c4cc(N5c6ccccc6C(C)(C)c6ccccc65)ccc4-3)c3ccccc3S(=O)(=O)c3ccccc32)c2ccccc21
- photoluminescence quantum yield (in c1ccc2c(c1)c1ccccc1n2-c1ccc(N(c2ccc(-n3c4ccccc4c4ccccc43)cc2)c2ccc(-n3c4ccccc4c4ccccc43)cc2)cc1): 0.41

Compound: c1ccc2[nH]c(-c3ccc(-c4ccc(-c5ccc(-c6nc7ccccc7[nH]6)cc5)cc4)cc3)nc2c1
- photoluminescence quantum yield (in CN(C)C=O): 0.88

Compound: Cc1cc(=O)oc2cc3c4ccc(C(C)(C)C)cc4c4cc(C(C)(C)C)ccc4c3cc12
- photoluminescence quantum yield (in ClC(Cl)Cl): 0.14

Compound: COc1ccc(-c2nc(C(C)=O)c(C)o2)cc1
- photoluminescence quantum yield (in CC#N): 0.056
- photoluminescence quantum yield (in CCO): 0.053
- photoluminescence quantum yield (in CCOC(C)=O): 0.134
- photoluminescence quantum yield (in CCOCC): 0.019
- photoluminescence quantum yield (in ClCCl): 0.051

Compound: Cc1cc(C)c(C2=C3C=CC(c4ccccc4O)=[N+]3[B-]3(c4ccccc4)Oc4ccccc4-c4ccc2n43)c(C)c1 (stereo not given)
- photoluminescence quantum yield (in ClC(Cl)Cl): 0.65

Compound: Cc1cccc2[n+]1[B-](F)(F)n1c(c3cccc4cccc1c43)=N2
- photoluminescence quantum yield (in C1CCOC1): 0.99
- photoluminescence quantum yield (in CC#N): 0.99
- photoluminescence quantum yield (in CCCCCC): 0.99
- photoluminescence quantum yield (in Cc1ccccc1): 0.99
- photoluminescence quantum yield (in ClCCl): 0.99

Compound: Cc1cc(C)c2c(c1)c1cc(C)cc(C)c1n2-c1ccc2c(c1)Sc1cc3c(cc1B2c1c(C(C)C)cc(C(C)C)cc1C(C)C)B(c1c(C(C)C)cc(C(C)C)cc1C(C)C)c1ccccc1S3
- photoluminescence quantum yield (in Cc1ccccc1): 0.17
- photoluminescence quantum yield (in O=P(c1ccccc1)(c1ccccc1)c1ccc2oc3ccc(P(=O)(c4ccccc4)c4ccccc4)cc3c2c1): 0.93

Compound: CC/[NH+]=c1\cc2oc3cc(NCCC(=O)NC(C(=O)OC)C(C)C)c4ccccc4c3nc-2cc1C (stereo not given)
- photoluminescence quantum yield (in CCO): 0.4
- photoluminescence quantum yield (in O): 0.26

Compound: CC1=CC(C)=[N+]2C1=C(c1c3ccccc3cc3ccccc13)c1c(C)cc(C)n1[B-]2(F)F
- photoluminescence quantum yield (in CC#N): 0.006
- photoluminescence quantum yield (in CCCCCC): 0.99
- photoluminescence quantum yield (in CCO): 0.038
- photoluminescence quantum yield (in CN(C)C=O): 0.011
- photoluminescence quantum yield (in Cc1ccccc1): 0.92
- photoluminescence quantum yield (in ClCCl): 0.072

Compound: CCCCC1=Cc2c3ccc4cccc5ccc(c6cc(-c7ccc(N(c8ccccc8)c8ccccc8)cc7)n(c26)P1(=O)c1ccccc1)c3c45 (stereo not given)
- photoluminescence quantum yield (in C1CCCCC1): 0.56
- photoluminescence quantum yield (in C1CCOC1): 0.49
- photoluminescence quantum yield (in C1COCCO1): 0.61
- photoluminescence quantum yield (in CC#N): 0.39
- photoluminescence quantum yield (in CC(C)=O): 0.52
- photoluminescence quantum yield (in CO): 0.29
- photoluminescence quantum yield (in Cc1ccccc1): 0.61
- photoluminescence quantum yield (in ClC(Cl)Cl): 0.58
- photoluminescence quantum yield (in ClCCl): 0.62

Compound: Cc1ccc(C2=[N+]3C(=Cc4c(C)cc(C)n4[B-]3(F)F)c3ccccc32)[nH]1
- photoluminescence quantum yield (in C1CCOC1): 0.82
- photoluminescence quantum yield (in CC#N): 0.84
- photoluminescence quantum yield (in CCCCCC): 0.91
- photoluminescence quantum yield (in CO): 0.83
- photoluminescence quantum yield (in Cc1ccccc1): 0.83
- photoluminescence quantum yield (in ClCCl): 0.89

Compound: CN(C)c1ccc(C2=[N+]3C(=Nc4c5ccccc5c(-c5ccc(N(C)C)cc5)n4[B-]3(F)F)c3ccccc32)cc1
- photoluminescence quantum yield (in ClCCl): 0.01

Compound: CCC1(CC)c2ccccc2-c2c1c1c(c3c2C(CC)(CC)c2cc(B(c4c(C)cc(C)cc4C)c4c(C)cc(C)cc4C)ccc2-3)C(CC)(CC)c2ccccc2-1
- photoluminescence quantum yield (in C1CCOC1): 0.56

Compound: CN(C)c1ccc(C2=Nc3scc(-c4ccc(C#N)cc4)[n+]3[B-](F)(F)O2)cc1
- photoluminescence quantum yield (in C1CCOC1): 0.23
- photoluminescence quantum yield (in CC#N): 0.02
- photoluminescence quantum yield (in Cc1ccccc1): 0.62
- photoluminescence quantum yield (in ClCCl): 0.61

Compound: CC(C)(C)c1ccc(-c2nnc(-c3c(-n4c5ccccc5c5ccccc54)c(-n4c5ccccc5c5ccccc54)c(-n4c5ccccc5c5ccccc54)c(-n4c5ccccc5c5ccccc54)c3-n3c4ccccc4c4ccccc43)o2)cc1
- photoluminescence quantum yield (in Cc1ccccc1): 0.13

Compound: CCC1=C(C)C2=Cc3c4ccccc4c4n3[B-](c3ccc5ccc6cccc7ccc3c5c67)(Oc3ccccc3-4)[N+]2=C1C (stereo not given)
- photoluminescence quantum yield (in CC#N): 0.66
- photoluminescence quantum yield (in CCCCCC): 0.72
- photoluminescence quantum yield (in Cc1ccccc1): 0.66
- photoluminescence quantum yield (in ClCCl): 0.71

Compound: CCOC(=O)c1[nH]c(C)c(/C=C/c2c(I)c(C)c3n2[B-](F)(F)[N+]2=C(C)C(I)=C(C)C2=C3c2cc(OC)cc(OC)c2)c1C
- photoluminescence quantum yield (in C1CCOC1): 0.22
- photoluminescence quantum yield (in CS(C)=O): 0.23
- photoluminescence quantum yield (in ClCCl): 0.21

Compound: CCCCCCN1C(=O)c2cccc3cc(/N=C\c4nc5ccccc5s4)cc(c23)C1=O
- photoluminescence quantum yield (in ClC(Cl)Cl): 0.002

The remaining lines, values ahead:

- photoluminescence quantum yield (in CO): 0.55
- photoluminescence quantum yield (in O): 0.3
Compound: CC1(C)C(/C=C/C=C/C=C/C=C2/N(CCCCCC(=O)O)c3ccc(S(=O)(=O)[O-])cc3C2(C)C)=[N+](CCCCS(=O)(=O)[O-])c2ccc(S(=O)(=O)[O-])cc21

- photoluminescence quantum yield (in ClCCl): 0.48
Compound: N#Cc1ccc(-c2cn3cc(-c4ccccc4)c[n+]3[n-]2)cc1

- photoluminescence quantum yield (in ClCCl): 0.002
Compound: N#C/C(=C\c1ccc(-c2ccncc2)cc1)c1ccc(-c2ccncc2)cc1

- photoluminescence quantum yield (in C1CCCCC1): 0.034
- photoluminescence quantum yield (in CC#N): 0.008
- photoluminescence quantum yield (in CCO): 0.01
- photoluminescence quantum yield (in CCOC(C)=O): 0.011
- photoluminescence quantum yield (in CO): 0.008
- photoluminescence quantum yield (in OCC(F)(F)F): 0.009
Compound: Cc1ccc(C2=C3C=C(I)C=[N+]3[B-](F)(F)n3cccc32)cc1

- photoluminescence quantum yield (in CCO): 0.23
Compound: O=c1c2cc(F)c(O)cc2oc2cc(N3CCCCC3)c(F)cc12

- photoluminescence quantum yield (in CCO): 0.83
- photoluminescence quantum yield (in O): 0.64
Compound: O=C([O-])c1ccc(C(=O)[O-])c(C2=c3cc4c5c(c3Oc3c2cc2c6c3CCCN6CCC2)CCC[N+]=5CCC4)c1

- photoluminescence quantum yield (in CO): 0.13
Compound: N#Cc1ccc(N/N=C/c2ccc3ccccc3c2O)cc1

- photoluminescence quantum yield (in C1CCCCC1): 0.368
Compound: COC(=O)c1noc(-c2ccccc2)c1Cl

- photoluminescence quantum yield (in c1ccccc1): 0.084
Compound: Cc1nc2c(ccc3ccc(N(C)C)cc32)oc1=O

- photoluminescence quantum yield (in CCO): 0.631
Compound: Cc1c(C)n2c(COC(=O)c3ccc(F)cc3)c(C)c(=O)n2c1=O

- photoluminescence quantum yield (in ClCCl): 0.77
Compound: C[Si]1(C)c2cc(C#Cc3ccccc3)ccc2C=Cc2ccc(C#Cc3ccccc3)cc21

- photoluminescence quantum yield (in CC1CCCCC1): 0.84
- photoluminescence quantum yield (in CC#N): 0.56
- photoluminescence quantum yield (in CO): 0.79
Compound: C=CCOc1ccc(-c2nc3cc(C(NC(=O)OC(C)(C)C)C(=O)OC)ccc3o2)cc1 (stereo not given)

- photoluminescence quantum yield (in ClCCl): 0.021
Compound: C(S/C=C/c1ccc(/C=C/SC=C2CCCC2)cc1)=C1CCCC1

- photoluminescence quantum yield (in ClCCl): 0.00157
Compound: COc1cc2c(cc1OC)C1=C[C@H](c3ccccc3)C3(C(C(=O)O[C@@H]4C[C@H]5CC[C@@H]4C5)=C(C(=O)O[C@H]4C[C@@H]5CC[C@H]4C5)N1CC2)c1ccccc1-c1ccccc13

- photoluminescence quantum yield (in C1CCOC1): 0.031
- photoluminescence quantum yield (in CC#N): 0.026
- photoluminescence quantum yield (in CC(C)O): 0.071
- photoluminescence quantum yield (in CC(O)CO): 0.1
- photoluminescence quantum yield (in CCCCO): 0.079
- photoluminescence quantum yield (in CCCO): 0.074
- photoluminescence quantum yield (in CCO): 0.034
- photoluminescence quantum yield (in CO): 0.076
- photoluminescence quantum yield (in NC=O): 0.083
- photoluminescence quantum yield (in O): 0.11
- photoluminescence quantum yield (in O=CO): 0.17
Compound: N#Cc1ccc(C[C@H](N)C(=O)O)cc1

- photoluminescence quantum yield (in CS(C)=O): 0.1
- photoluminescence quantum yield (in ClCCl): 0.69
Compound: CCN(CC)c1ccc2c(c1)oc(=O)c1c(=O)oc3cc(C#Cc4ccc(C#N)cc4)ccc3c12

- photoluminescence quantum yield (in C1CCCCC1): 0.036
- photoluminescence quantum yield (in CC#N): 0.018
- photoluminescence quantum yield (in CCO): 0.025
- photoluminescence quantum yield (in CCOC(C)=O): 0.024
- photoluminescence quantum yield (in CO): 0.018
- photoluminescence quantum yield (in OCC(F)(F)F): 0.031
Compound: Cc1ccc(C2=C3C=CC=[N+]3[B-](F)(F)n3cccc32)cc1

- photoluminescence quantum yield (in CCO): 0.0111
- photoluminescence quantum yield (in ClCCl): 0.0197
- photoluminescence quantum yield (in O): 0.01
Compound: N#CC(C#N)=Cc1ccc(-c2ccc(-c3nc4ccccc4s3)c(O)c2)s1

- photoluminescence quantum yield (in CO): 0.05
Compound: CC1(C)C(/C=C/C2=C(Cl)C(=C/C=C3/N(CCCS(=O)(=O)[O-])c4ccccc4C3(C)C)/CCC2)=[N+](CCCS(=O)(=O)[O-])c2ccccc21

- photoluminescence quantum yield (in CS(C)=O): 0.01
Compound: C(/C=C/Nc1cccc2ccccc12)=[NH+]c1cccc2ccccc12

- photoluminescence quantum yield (in CO): 0.09
Compound: COc1ccc(-c2c(OC)ccc3nnn(C[C@H](N)C(=O)O)c23)cc1
